Values of other authors, collected in publication PMC8802806, “Synthesis and Antitumor Activity of Erlotinib Derivatives Linked With 1,2,3-Triazole” (Frontiers in Pharmacology, 2022).
Read-outs that look alike come from different tables or passages of the source.

System: HeLa cells
Conditions: cited from earlier work
[1] = chromenocarbazole tethered 1,2,3-triazoles, ref Chavan et al., 2019, read-out: IC50 antiproliferative activity in HeLa cells

Compound	IC50 [1]	IC50 (amidino 2-substituted benzimidazoles linked to 1,2,3-triazoles, ref Raic-Malic et al., read-out: IC50 antiproliferation activities against HeLa cells)
Cc1ccc(Cn2cc(CN3C(=O)C4(C(C#N)=C(N)Oc5c4ccc4[nH]c6ccccc6c54)c4ccccc43)nn2)cc1 (centres unmarked) [6b]	4.05 µM	
N#CC1=C(N)Oc2c(ccc3[nH]c4ccccc4c23)C12C(=O)N(Cc1cn(Cc3ccc(C(F)(F)F)cc3)nn1)c1ccccc12 (centres unmarked) [6g]	3.54 µM	
N#CC1=C(N)Oc2c(ccc3[nH]c4ccccc4c23)C12C(=O)N(Cc1cn(Cc3ccc(Cl)cc3)nn1)c1ccc(Br)cc12 (centres unmarked) [6s]	3.83 µM	
Cc1ccc(Cn2cc(CN3C(=O)C4(C(C#N)=C(N)Oc5c4ccc4[nH]c6ccccc6c54)c4cc(F)ccc43)nn2)cc1 (centres unmarked) [6u]	3.35 µM	
CC(C)NC(=N)c1ccc2[nH]c(-c3ccc(OCc4cn(Cc5ccc(Cl)cc5)nn4)cc3)nc2c1 [10c]		17.5 µM
